Laboratory results as given in ChEMBL document CHEMBL1201862, “PubChem BioAssay data set” (2004).
Values belong to the molecule of their own block, whether it stands above or below them. Activity calls are given as the source filed them.

Assays:
[1] = inhibitors of HIV Env-driven cell fusion, dose response, cherry-pick (AID 652057); format: functional, cell-based
[2] = inhibitors of intracellular T. cruzi replication, confirmation, NIH3T3 host cells, beta-gal luminescence (AID 2044); format: functional, cell-based;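 note: intracellular parasites grown in NIH/3T3 mouse fibroblasts as host cells; luminescent beta-galactosidase reporter signal from transgenic T. cruzi replicating inside host cells; inhibitors lower the luminescence signal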
[3] = cytotoxicity toward NIH3T3 fibroblasts, dose response, counter-screen, cell-based, ATP luminescence, mouse fibroblasts (AID 2010); format: functional;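 note: cells exposed to compound for about 90 hours before reading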
[4] = ZM109 Env clade C HIV-1 fusion inhibitors, dose response, HeLa effector, CEM target cells, luciferase, cherry-pick (AID 652058); format: functional, cell-based
[5] = inhibitors of clade B AD8 Env fusion, dose response, cell-based, cherry-pick (AID 652062); format: functional;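 note: luciferase signal from cell-cell fusion driven by HIV-1 clade B AD8 Env; potency is for inhibitors of fusion seen as a drop in luminescence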
[6] = off-target signal loss in HeLa-CEM21 co-culture – HeLa F-luc CTL cells, cherry-picked, counter-screen for HIV-1 Env fusion inhibitor project, dose response (AID 652040); format: functional, cell-based;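 note: potency for signal decrease marking cytotoxic or nonspecific inhibition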
[7] = NIH-3T3 fibroblast cytotoxicity, dose response, cytotoxicity control, cell-based, fluorescence, Alamar Blue, secondary assay (AID 2327); format: functional;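 note: NIH-3T3 mouse fibroblasts cultured with fluconazole at 8 µg/mL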
[8] = C. albicans growth with fluconazole, confirmation, fluorescence, retest (AID 2467); format: functional, cell-based
[9] = tested on: Streptococcus sp. 'group A'; assay: growth inhibition of control SK(-) GAS strain, dose response, counter-screen for streptokinase expression inhibitor project, luminescence, kanamycin, BacTiterGlo, confirmation (AID 1900); format: functional, organism-based
Streptococcus = assay: Group A Streptococcus viability loss, dose response, counter-screen for streptokinase expression inhibitor project, luminescence, BacTiterGlo (AID 1915); format: functional, organism-based;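 note: potency for reduction of bacterial viability or growth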
Cytochrome P450 1A2 = molecular target: T1, Cytochrome P450 1A2 (Homo sapiens, UniProt P05177);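 note: PubChem cytochrome P450 panel assay, CYP1A2 panel member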
T1 sequence (P05177 whole entry): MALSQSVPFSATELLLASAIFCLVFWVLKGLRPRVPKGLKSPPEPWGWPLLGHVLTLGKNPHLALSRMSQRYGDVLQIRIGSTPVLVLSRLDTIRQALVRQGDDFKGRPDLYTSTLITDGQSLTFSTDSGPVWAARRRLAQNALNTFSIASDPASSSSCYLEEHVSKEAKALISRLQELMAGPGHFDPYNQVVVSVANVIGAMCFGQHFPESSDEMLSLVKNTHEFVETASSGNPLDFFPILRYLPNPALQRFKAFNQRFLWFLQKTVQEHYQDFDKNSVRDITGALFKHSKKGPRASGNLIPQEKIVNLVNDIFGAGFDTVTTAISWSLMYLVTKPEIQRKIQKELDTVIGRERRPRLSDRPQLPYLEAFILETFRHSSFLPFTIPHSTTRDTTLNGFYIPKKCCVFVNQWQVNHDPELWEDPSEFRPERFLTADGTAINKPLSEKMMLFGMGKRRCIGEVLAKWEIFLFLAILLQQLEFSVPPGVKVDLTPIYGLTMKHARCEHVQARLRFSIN

Leucine aminopeptidase = molecular target: T2, Leucine aminopeptidase (Plasmodium falciparum 3D7, UniProt Q8IL11); assay: P. falciparum M17LAP inhibitors, primary screen, biochemical, fluorogenic H-Leu-NHMec substrate, 1536-well (AID 1619); format: functional
T2 sequence (Q8IL11 whole entry): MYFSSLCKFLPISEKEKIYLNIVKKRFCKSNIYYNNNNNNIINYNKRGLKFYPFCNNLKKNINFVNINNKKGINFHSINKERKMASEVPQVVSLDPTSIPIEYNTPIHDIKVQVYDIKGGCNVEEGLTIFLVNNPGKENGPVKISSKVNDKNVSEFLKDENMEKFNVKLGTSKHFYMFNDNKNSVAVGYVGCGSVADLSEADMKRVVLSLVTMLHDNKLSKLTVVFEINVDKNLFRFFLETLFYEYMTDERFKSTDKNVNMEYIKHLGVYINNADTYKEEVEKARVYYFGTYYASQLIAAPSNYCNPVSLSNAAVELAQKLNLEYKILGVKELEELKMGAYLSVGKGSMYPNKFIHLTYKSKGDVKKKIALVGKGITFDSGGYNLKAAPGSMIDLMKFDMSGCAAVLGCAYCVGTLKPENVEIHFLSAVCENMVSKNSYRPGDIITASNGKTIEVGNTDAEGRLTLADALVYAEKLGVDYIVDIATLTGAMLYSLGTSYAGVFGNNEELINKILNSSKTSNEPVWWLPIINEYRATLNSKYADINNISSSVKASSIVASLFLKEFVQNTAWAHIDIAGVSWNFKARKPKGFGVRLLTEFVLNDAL

[10] = molecular target: T3, Serine/threonine-protein phosphatase (Candida dubliniensis (strain CD36 / CBS 7987 / NCPF 3949 / NRRLY-17841) (Yeast), UniProt B9W6M3); assay: calcineurin pathway inhibitors in yeast reporter, dose response, S. cerevisiae, CDRE-lacZ, luminescence, secondary (AID 2388); format: functional, cell-based;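 note: yeast reporter cells carrying a calcineurin-responsive lacZ construct stimulated with calcium chloride; luminescent beta-galactosidase reporter signal in whole cells rather than isolated phosphatase activity; potency for inhibition where a drop in reporter signal means calcineurin blockade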
T3 sequence (B9W6M3 whole entry): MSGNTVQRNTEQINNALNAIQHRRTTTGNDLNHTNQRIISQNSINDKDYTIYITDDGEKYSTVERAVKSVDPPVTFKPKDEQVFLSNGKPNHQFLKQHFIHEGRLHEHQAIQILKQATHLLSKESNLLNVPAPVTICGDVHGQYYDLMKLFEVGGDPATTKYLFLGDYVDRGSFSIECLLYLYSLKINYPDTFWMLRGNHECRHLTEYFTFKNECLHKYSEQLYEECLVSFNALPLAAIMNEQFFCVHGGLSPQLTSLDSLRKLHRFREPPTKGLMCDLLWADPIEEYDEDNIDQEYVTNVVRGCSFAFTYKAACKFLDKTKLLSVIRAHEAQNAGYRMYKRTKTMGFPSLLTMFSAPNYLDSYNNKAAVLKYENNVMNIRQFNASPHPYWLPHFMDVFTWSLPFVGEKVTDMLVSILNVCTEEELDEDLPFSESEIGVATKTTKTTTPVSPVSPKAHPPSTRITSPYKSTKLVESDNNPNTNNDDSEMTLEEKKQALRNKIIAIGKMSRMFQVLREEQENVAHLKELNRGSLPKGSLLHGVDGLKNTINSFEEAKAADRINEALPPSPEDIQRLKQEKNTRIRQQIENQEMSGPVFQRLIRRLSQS

[11] = molecular target: ATP-dependent molecular chaperone HSP82 (Candida albicans (strain WO-1) (Yeast), UniProt C4YTQ8); assay: loss of DOC-induced GRE-beta-galactosidase reporter signal, dose response, Hsp90 inhibitor project, S. cerevisiae, luminescence (AID 2400); format: functional, cell-based;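 note: beta-galactosidase luminescence from glucocorticoid response element reporter as proxy for Hsp90 function; inhibitor potency where signal loss means Hsp90 inhibition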
[12] = molecular target: T4, Corticotropin-releasing factor receptor 2/Corticotropin-releasing factor-binding protein (Homo sapiens, UniProt P24387+Q13324); assay: activators of CRF receptor 2 with binding protein – uHTS hits, confirmation (AID 602473); format: functional; settings: read-out: EC50_Mean
T4 sequence (Q13324 whole entry): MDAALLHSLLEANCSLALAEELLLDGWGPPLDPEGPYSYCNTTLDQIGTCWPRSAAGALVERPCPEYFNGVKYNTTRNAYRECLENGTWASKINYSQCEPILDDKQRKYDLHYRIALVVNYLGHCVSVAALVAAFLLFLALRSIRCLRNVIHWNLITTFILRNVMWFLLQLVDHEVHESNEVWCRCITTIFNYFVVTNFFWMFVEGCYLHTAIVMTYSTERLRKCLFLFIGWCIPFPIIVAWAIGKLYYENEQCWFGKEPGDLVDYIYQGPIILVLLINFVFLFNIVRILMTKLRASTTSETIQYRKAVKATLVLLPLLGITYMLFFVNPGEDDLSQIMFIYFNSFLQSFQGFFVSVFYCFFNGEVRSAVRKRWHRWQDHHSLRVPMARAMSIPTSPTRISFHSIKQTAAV
T4 sequence (P24387 whole entry): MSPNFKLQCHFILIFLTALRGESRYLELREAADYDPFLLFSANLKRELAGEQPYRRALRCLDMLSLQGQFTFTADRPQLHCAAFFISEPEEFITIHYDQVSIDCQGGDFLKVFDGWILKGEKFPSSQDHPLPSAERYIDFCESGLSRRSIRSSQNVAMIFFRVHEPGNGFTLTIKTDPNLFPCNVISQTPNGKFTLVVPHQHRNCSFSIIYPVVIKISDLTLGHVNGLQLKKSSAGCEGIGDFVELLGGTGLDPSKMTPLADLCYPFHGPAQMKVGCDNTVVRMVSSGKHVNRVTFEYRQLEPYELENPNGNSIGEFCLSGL

[13] = CRF-BP/CRF-R2 complex antagonists, dose response, cell-based, uHTS hits, 384-well (AID 651639); format: functional, Homo sapiens; settings: read-out: IC50_Mean
[14] = molecular target: T4, Corticotropin-releasing factor receptor 2/Corticotropin-releasing factor-binding protein; assay: Dose Response confirmation of uHTS hits for small molecule antagonists of the CRF-binding protein and CRF-R2 receptor complex.; format: functional; settings: read-out: IC50_Mean
BJ [15] = assay: cytotoxicity toward BJ-TERT-LT-ST fibroblasts, dose response, cell-based, RAS-independent, luminescence (AID 1935); format: functional; settings: Homo sapiens;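 note: BJ fibroblasts immortalized with TERT plus LT and ST oncogenes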
[16] = cytotoxicity toward DRD oncogenic fibroblasts, dose response, cell-based, non-viral oncogenic, luminescence (AID 1934); format: functional; settings: Homo sapiens
BJ [17] = assay: cells; format: functional, cell-based; settings: Homo sapiens
BJ [18] = assay: cytotoxicity toward BJ-TERT fibroblasts, dose response, cell-based, RAS-independent, luminescence (AID 1933); format: functional; settings: Homo sapiens

Sequence of ATP-dependent molecular chaperone HSP82 (C4YTQ8 whole entry): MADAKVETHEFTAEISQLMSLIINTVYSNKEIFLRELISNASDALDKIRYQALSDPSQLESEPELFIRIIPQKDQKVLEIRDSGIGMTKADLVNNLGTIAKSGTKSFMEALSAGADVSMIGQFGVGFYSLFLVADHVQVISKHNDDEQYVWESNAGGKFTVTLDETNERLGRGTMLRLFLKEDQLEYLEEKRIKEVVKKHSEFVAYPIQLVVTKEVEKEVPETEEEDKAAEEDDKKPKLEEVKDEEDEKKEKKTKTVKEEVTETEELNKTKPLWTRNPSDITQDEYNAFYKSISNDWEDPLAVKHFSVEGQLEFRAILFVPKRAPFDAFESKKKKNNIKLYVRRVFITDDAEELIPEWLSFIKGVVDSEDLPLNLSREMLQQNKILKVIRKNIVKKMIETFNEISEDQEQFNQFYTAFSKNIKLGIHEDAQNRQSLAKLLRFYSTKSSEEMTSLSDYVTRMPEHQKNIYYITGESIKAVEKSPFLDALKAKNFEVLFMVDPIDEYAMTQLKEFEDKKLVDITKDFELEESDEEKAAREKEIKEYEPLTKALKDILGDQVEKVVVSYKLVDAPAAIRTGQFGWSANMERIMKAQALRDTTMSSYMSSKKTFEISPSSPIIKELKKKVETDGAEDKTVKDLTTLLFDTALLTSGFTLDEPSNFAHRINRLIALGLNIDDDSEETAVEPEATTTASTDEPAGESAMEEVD

SMILES: CCN(C1CCCCC1)S(=O)(=O)c1ccc(S(=O)(=O)N(CC(=O)Nc2ccccc2)C2CC2)cc1
AC50 [1]: 4.9 µM (active)
EC50 [2]: 1.93 µM (active)
EC50 [3]: > 60 µM (not active)
AC50 [4]: 6.25 µM (active)
AC50 [5]: 7.31 µM (active)
AC50 [6]: 27.9 µM (active)

SMILES: O=C(NC1CCCCC1)C(c1ccc(Cl)cc1)N(C(=O)c1cnccn1)c1ccc2c(c1)OCO2 (stereo unspecified)
EC50 [7]: > 150 µM (inactive)
AC50 [1]: 3.15 µM (active)
EC50 [8]: > 38 µM (not active)
AC50 [4]: 2.47 µM (active)
AC50 [5]: 1.95 µM (active)
AC50 [6]: 7.12 µM (active)

SMILES: O=C(CCc1ccccc1)NNC(=S)NC(=O)c1ccccc1
EC50 [7]: > 150 µM (inactive)
EC50 [9]: 1.27 µM (active)
EC50 [8]: 1.01 µM (active)
EC50 (Streptococcus): 5.07 µM (active)
AC50 (Cytochrome P450 1A2): 14.1 µM (inconclusive)
IC50 (Leucine aminopeptidase): 41.3 µM (active)
EC50 [10]: 19.2 µM (active)
EC50 [11]: 16.4 µM (active)

SMILES: CC1CCc2c(sc3ncnc(N4CCOCC4)c23)C1 (stereo unspecified)
EC50 [7]: > 160 µM (inactive)
AC50 [1]: 22.5 µM (active)
EC50 [8]: > 38 µM (not active)
AC50 [4]: 0.858 µM (active)
AC50 [5]: 4.54 µM (active)
AC50 [6]: 20.8 µM (active)

EC50 [12]: > 53 µM (inactive)
IC50 [13]: > 20 µM (inactive)
IC50 [14]: < 0.368 µM (active)
SMILES: O=C(Nc1cc(S(=O)(=O)N2CCCCC2)ccc1N1CCCCC1)C1CC1

SMILES: COc1ccc(C(=O)/C(C#N)=N/Nc2ccccc2[N+](=O)[O-])cc1
EC50 [12]: > 53 µM (inactive)
EC50 (BJ [15]): 21.5 µM (inconclusive)
IC50 [13]: 11 µM (active)
EC50 [16]: 2.84 µM (active)
EC50 (BJ [17]): 19.4 µM (inconclusive)
IC50 [14]: 4.66 µM (active)
EC50 (BJ [18]): 10.7 µM (active)
